This note sets out measurements from article PMC12441843 (ACS pharmacology & translational science, 2025).

The test system of series [1] is senescent lung fibroblasts. Briefly: Cleaved caspase-3 (CCasp3) immunocytochemistry in senescent lung fibroblasts. Format: cell-based, human. Conditions: for Senolytic window (EC50pro/EC50sen): ratio of proliferating to senescent fibroblast EC50; for concentration above which senolytic effects were displayed: CCasp3 dose-response.
Series [2] deals with proliferating lung fibroblasts. Briefly: Cleaved caspase-3 (CCasp3) immunocytochemistry in proliferating lung fibroblasts. Format: cell-based, human.
Series [3] can be described thus: Plasma stability assay, mouse plasma. Format: in vitro ADME.
A short description of series [4]: Plasma stability assay, human plasma. Format: in vitro ADME.
Series [5] is described as follows: Mouse liver microsomal stability. To be noted: mouse liver microsomes, 1 μM. Format: in vitro ADME. On the technique in general: Microsomes from liver hold many membrane-bound enzymes, among them those of drug oxidation.
A short description of series [6]: Plasma levels following oral delivery of F-4N. Format: in vivo. To be noted: both sexes, mouse, 30 mg/kg.
The subject of series [7] is precision-cut lung slices from bleomycin-injured aged mouse lungs. Briefly: Precision-cut lung slices (PCLS) from aged mice +/- bleomycin, qPCR. Conditions: 72 hours ex vivo; for Col1a1 expression in PCLS: Nintedanib 1.0μM, vs. vehicle.
Series [8] has as its system bleomycin-induced lung fibrosis in aged mice. Kind of series: Bleomycin-induced model of lung fibrosis in aged mice. Format: in vivo, mouse.
The test system of series [9] is repeated bleomycin-induced lung fibrosis. Briefly: Repeated bleomycin-induced model of lung fibrosis. To be noted: 10mg/kg daily i.p. for two weeks. Format: in vivo, mouse.
Series [10] concerns senescent lung fibroblasts. Kind of series: Annexin V / Propidium Iodide flow cytometry, senescent fibroblasts. Conditions: 72 hours, F-4N 3.0 μM. Format: cell-based, human.
The subject of series [11] is proliferating lung fibroblasts. Kind of series: Annexin V / Propidium Iodide flow cytometry, proliferating fibroblasts. Format: cell-based, human. To be noted: 72 hours, F-4N 3.0 μM. (In flow cytometry, cells or beads pass a laser one at a time.)
Series [12] deals with mice with bleomycin induced lung fibrosis. Briefly: Oral dose-finding study with F-4N in bleomycin mice (body mass, lung cytokine transcripts). Format: in vivo, mouse.
Series [13] has as its system bleomycin-induced lung fibrosis. Kind of series: Bleomycin model in young Col1a2-mTmG mice, FACS-sorted fibroblasts and epithelial cells, qPCR. Format: in vivo, mouse.
[14] abbreviates: Homo sapiens, Fibroblast, 72 h, read-out: Senescent fibroblast apoptosis EC50.
Setting [15] is: Homo sapiens, Fibroblast, 72 h, read-out: Proliferating fibroblast apoptosis EC50, cleaved caspase-3 staining, 72 hours, low passage human lung fibroblasts.
[16] abbreviates: F-4N 3µM, ABT-263 5.0µM, ABT-199 3µM.
Where [17] appears, read: 10 mg/kg i.p. daily days 14-28, vs. vehicle.
[18] abbreviates: read-out: Proliferating fibroblast apoptosis EC50, cleaved caspase-3 staining, 72 hours, low passage human lung fibroblasts.
The mark [19] stands for this setting: senescent vs. proliferating fibroblasts, 72 hours.

Molecules are shown by their SMILES. Where “and” joins values, the source holds several entries; their conditions need not be identical. Equal values may be shown once. Read-outs that look alike come from different tables or passages of the source. Bounds are passed on as bounds.

As for `CC1(C)CCC(CN2CCN(c3ccc(C(=O)NS(=O)(=O)c4ccc(NCC5CCOCC5)c([N+](=O)[O-])c4)c(Oc4cnc5[nH]ccc5c4)c3)CC2)=C(c2ccc(Cl)cc2)C1` [ABT-199, venetoclax, reference compound], the half-maximal effective concentration (EC50) in series [1] (setting [14]) worked out at 3.2 µM; in [2] (setting [15]) it was 76.5 µM. Also, the “Senolytic window (EC50pro/EC50sen)” value in series [1] is 23.9.
In the same order, the values of `CC1(C)CCC(c2ccc(Cl)cc2)=C(CN2CCN(c3ccc(C(=O)NS(=O)(=O)c4ccc(N[C@H](CCN5CCOCC5)CSc5ccccc5)c(S(=O)(=O)C(F)(F)F)c4)cc3)CC2)C1` [ABT-263, navitoclax, reference compound] are 1.9 µM, 14.9 µM and 7.8.
For the compound `CN(C)CC[C@H](CSc1ccccc1)Nc1ccc(S(=O)(=O)NC(=O)c2ccc(N3CCN(Cc4ccccc4-c4ccc(Cl)cc4)CC3)cc2)cc1[N+](=O)[O-]` [ABT-737, reference compound], the EC50 in series [1] (setting [14]) turned out to be 0.7 µM; in series [2] (setting [15]) it was 9.7 µM.
In the case of `O=c1c(O)c(-c2ccc(OCc3ccccn3)cc2)oc2ccccc12` [Compound F-2N], the EC50 in series [1] (setting [14]) is 21.8 µM; in [2] (setting [15]), 29.8 µM. Besides, the “Senolytic window (EC50pro/EC50sen)” value in series [1] was 1.4.
In the same order, the values of `O=c1c(O)c(-c2ccc(OCc3cccnc3)cc2)oc2ccccc12` [Compound F-3N] are 11.2 µM, 14.9 µM and 1.3.
As for `O=c1c(O)c(-c2ccc(OCc3ccncc3)cc2)oc2ccccc12` [Compound F-4N], in series [1], the “greater senolytic potency in vitro compared to fisetin or quercetin” value is listed as ~ 50 X and the “Senolytic window (EC50pro/EC50sen)” value is reported as 61.1. In series [1] (setting [14]), the EC50 was 0.8 µM. Besides, in series [1] (Homo sapiens, Fibroblast, read-out: EC50 (senolytic potency, CCasp3 assay)), the half-maximal effective concentration (EC50) is 0.9 µM. In [1] (Homo sapiens, Fibroblast, read-out: defined in vitro IC50), the half-maximal inhibitory concentration (IC50) worked out at 0.9 µM. Besides, the “cleaved caspase-3 expression in senescent fibroblasts derived from multiple stimuli” value in series [1] (senescence by replication, radiation, etoposide or bleomycin, 72 hours, F-4N 3µM) is given as “induces cleaved caspase-3 expression”. The “senolytic window (selective)” value in series [1] (senescent vs. proliferating fibroblasts) came out at 61.1 fold. Besides, the half-maximal effective concentration (EC50) in [2] (setting [15]) turned out to be 48.9 µM. This compound returned a half-life at 1 μM in [3] greater than 120 min. The compound further returned a half-life at 1 μM in series [4] greater than 120 min. Further, in series [5], the “microsomal half-life relative to quercetin” value is greater than 3 fold. Further, the concentration at 2 h in [6] was 561 ng/mL and 1.62 µM. Besides, in series [7] (setting [16]), the “markers indicative of alveolar regeneration in PCLS” value is listed as “stimulated expression of markers indicative of alveolar regeneration” and the “senescence associated markers in PCLS” value is “supported reductions in senescence associated markers”. For the same compound, in series [8] (10 mg/kg i.p. daily days 14-28), the “plasma levels of IL-6” value is listed as “nearly complete normalization”. Further, in series [8] (setting [17]), the “lung collagen content (hydroxyproline)” value was “nearly complete resolution of lung collagen content”; the mouse survival entry is listed as “improvement in mouse survival”; the “whole lung expression of ECM and senescence-associated transcripts” value is recorded as “significantly lower expression”; the “whole lung markers associated with alveolar regeneration and repair” value was “significantly elevated”. Moreover, in series [9], the “expression of aberrant basaloid/intermediate epithelial markers Snf, Cldn4, Krt19, Mmp7” value is recorded as “repressing expression” and the “expression of mature alveolar epithelial markers Hopx, Ager, Sftpa1, Sftpc” value is “enhanced expression”. The “body mass, lung architecture, collagen content, whole lung gene expression” value in series [9] (vs. vehicle) was “features consistent with resolution”. Also, in series [10], the “apoptosis (Annexin V / Propidium Iodide)” value is given as “selective apoptosis in senescent lung fibroblasts”. Further, in [11], the “apoptosis (Annexin V / Propidium Iodide)” value is on record as “without an observable impact”. In addition, the bodyweight result in series [12] (30mg/kg daily p.o. for one week) was “improvement in bodyweight”. In [12] (daily p.o. 7 days, whole lung qPCR), the “minimum effective oral dose to impact expression of Infa2, Il6, Ccl19, Cxcl13, Tgfb2, Ltb” value worked out at 30 mg/kg.
In the case of `CCOc1ccc(-c2oc3ccccc3c(=O)c2O)cc1` [Compound F-19], in series [1], the “more potent than the natural products Q or F” value came to 10 fold and the “Senolytic window (EC50pro/EC50sen)” value amounted to 10.2. Moreover, the “ranking in follow-up dose-response of the commercial flavonol library” value in [1] (CCasp3, senescent and proliferating lung fibroblasts) is “most potent and selective senolytics”. Further, the 50% effective concentration (EC50) in series [1] (setting [14]) stood at 2.4 µM. The EC50 in series [2] (setting [15]) was 25 µM. In addition, the EC50 in [2] (setting [18]) was found to be 24.5 µM. Moreover, in series [7] (F-19 10μM), the “expression of Sftpc and Hopx (mature alveolar epithelium) in PCLS” value is reported as “increased expression”; the “Col1a1 expression in PCLS” value is on record as “reduced expression of Col1a1”. Further, the “expression of senescence-associated markers Cdkn2a, Cdkn1a, Il6 in PCLS” value in series [7] (F-19 10μM, vs. vehicle- and nintedanib-treated) is listed as “significantly reduced expression”. For the same compound, in series [13] (10 mg/kg i.p. daily for 4 days), the “expression of TNF-α in fibroblasts and epithelial cells” value is recorded as “did not alter expression”; the “expression of pathological markers of lung fibrosis (ECM genes, senescence-associated soluble factors, aberrant basaloid markers)” value is given as “normalized expression”. Besides, the “expression of Cdkn2a (p16) and Cdkn1a (p21) in fibroblasts and epithelial cells” value in series [13] (10 mg/kg i.p. daily for 4 days from day 10 after bleomycin, vs. vehicle) is reported as “significantly reduced expression”. Besides, the “expression of alveolar epithelial ATII, ATII/ATI and ATI markers” value in series [13] (10 mg/kg i.p. daily for 4 days, vs. vehicle) was “elevated expression”.
In the case of `O=c1c(O)c(-c2ccc(OCc3ccccc3)cc2)oc2ccccc12` [Compound F-20], the EC50 in series [1] (setting [14]) was 1.5 µM; in series [2] (setting [15]) it was 27.6 µM. Moreover, the “Senolytic window (EC50pro/EC50sen)” value in series [1] worked out at 18.4.
For the compound `CCCOc1ccc(-c2oc3ccccc3c(=O)c2O)cc1` [F-19(Me)], in series [1], the “Senolytic window (EC50pro/EC50sen)” value came out at 5.7. Besides, the concentration for a half-maximal effect (EC50) in [1] (read-out: Senescent fibroblast apoptosis EC50, cleaved caspase-3 staining, 72 hours, replicative senescent human lung fibroblasts) came to 3.4 µM; in series [2] (setting [18]) it was 19.5 µM.
`O=c1c(O)c(-c2ccc(O)c(O)c2)oc2cc(O)ccc12` [fisetin, reference compound]: the “concentration above which senolytic effects were displayed” value in series [1] (setting [19]) is given as “above 30 μM”.
On to `COC(=O)c1ccc2c(c1)NC(=O)/C2=C(\Nc1ccc(N(C)C(=O)CN2CCN(C)CC2)cc1)c1ccccc1` [nintedanib, reference compound], for which the “Col1a1 expression in PCLS” value in series [7] (F-19 10μM) is “reduced expression of Col1a1”.
As to `O=c1c(O)c(-c2ccc(O)c(O)c2)oc2cc(O)cc(O)c12` [quercetin, reference compound], the “concentration above which senolytic effects were displayed” value in [1] (setting [19]) is reported as “above 30 μM”. The EC50 in series [1] (setting [14]) was greater than 30 µM. Also, the half-life at 1 μM in series [3] and in series [4] was roughly 30 min each time.

Broadly, the EC50 is the concentration needed to bring the measured effect to its halfway point. A word on the IC50: it is the concentration needed to halve the response being measured. In general, half-life refers to how long it takes for the measured level to halve. Higher therefore signals slow loss.
